Reference: US20050112573A1, “Method of detecting toxic substance” (priority 2001, published 2005)

Test system: yeast genes (level of expressed mRNA)
Test: DNA chip analysis of expressed mRNA of yeast genes after 2 h culture with a toxic chemical substance
Assay type: cell-based, Saccharomyces cerevisiae S288C
Conditions: for The level of expressed mRNA in the presence of chemical substance/ (ratio to absence of chemical substance): stress protein genes, DNA chip
Protocol: Yeast (Saccharomyces cerevtisiae S288C (α SUC2mal mel gap2 CUP1)) were cultured at 25° C. on YPD medium (yeast extract 1%, polypepton 2%, glucose 2%). One of toxic chemical substances was added to the cell at logarithmic growth phase, and the cell was further cultured for two hours. Cell was cultured without any chemical substance in the same condition, and was used as control. Concentrations of the chemical substances were defined to inhibit the growth of the yeast but not lead to death.
After the completion of cultivation, the culture was centrifuged to collect the cells. To the cells, sodium acetate buffer (50 mM sodium acetate, 10 mM EDTA, 1% SDS) was added, and the mixture was shaken at 65° C. for five minutes, followed by returning to room temperature, and obtaining the supernatant, which procedure was repeated two times. To the supernatant, ½ amount of a solution of phenol/chloroform was added, and the mixture was centrifuged to give a supernatant, which was added with an equal amount of chloroform, and the mixture was centrifuged to give a supernatant. To the supernatant, an equal amount of isopropanol containing 0.3 M sodium acetate was added, and the mixture was allowed to stand at room temperature for 30 minutes, after which the mixture was centrifuged to give a sediment of the whole RNAs. Seventy % ethanol was added to the sediment, and the mixture was again centrifuged to give a sediment, which was then dried and dissolved in water. mRNA was isolated from the whole RNAs as followings. In view of the fact that a poly A chain is attached to the 3′ terminus of mRNA, a polynucleotide having a poly T structure which was immobilized on the surface of latex beads was used to trap the mRNA, and then the mRNA was washed and eluted with spine column (Oligotex-dT30<Super>mRNA Purification Kit, Takara). Reverse transcription of the mRNA was conducted with a reverse transcriptase (Super Script II Reverse Transcriptase; catalogue No. 18064-014, GibcoBRL) using fluorescence-labeled nucleotides to give cDNAs that were introduced with Cy3-dUTP or Cy5-dUTP during the reverse transcription.
The labeled cDNAs were dissolved in TE buffer (10 mM Tris-HCl/1 mM EDTA, pH8.0), and the solution was dropped on the DNA chip containing the whole genes of yeast (DNA Chip Research Inc. Japan) so that the cDNAs were hybridized on the DNA chip at 65° C. for over 12 hours. The fluoresces intensity of the DNA chip was read with a scanner, and the ratio relative to the fluorescence intensity resulting from the absence of chemical substance was estimated as the following, which is shown in Tables 1 to 9: [formula]
In the Tables, “Intensity” indicated in the rightmost column is a value of the level of expressed mRNA of each gene in control cells as divided by the average level of the expressions of the whole genes.

In the case of `S=C([S-])NCCNC(=S)[S-].[Zn+2]` [(11), zinc N,N′-ethylenebis(dithiocarbamate)], the “The level of expressed mRNA in the presence of chemical substance/absence: YOR253W” value (gene YOR253W) is reported as 0.9, the “The level of expressed mRNA in the presence of chemical substance/absence: YOR267C” value (gene YOR267C) is reported as 0.4 and the “The level of expressed mRNA in the presence of chemical substance/absence: YOR325W” value (gene YOR325W) is reported as 0.6. For the same compound, the “level of expressed mRNA in the presence of chemical substance/in its absence” value (shortened to “level … of chemical substance/in its absence”) (gene YOR336W) was 1.4, the “level … of chemical substance/in its absence” value (gene YOR344C) was 0.6 and the “level … of chemical substance/in its absence” value (gene YOR347C) was 1.4. The “The level of expressed mRNA in the presence of chemical substance/absence: YPL005W” value (gene YPL005W) was 1.1, the “level … of chemical substance/in its absence” value (gene YPL017C) was 0.4 and the “The level of expressed mRNA in the presence of chemical substance / the level in the absence of chemical substance, yeast gene YPL107W” value (gene YPL107W, DNA chip fluorescence ratio to control without chemical, 2 hours culture with chemical, growth-inhibiting non-lethal concentration) was 1.1. For the same compound, the “The level of expressed mRNA in the presence of chemical substance / the level in the absence of chemical substance, yeast gene YPL138C” value (gene YPL138C, DNA chip fluorescence ratio to control without chemical, 2 hours culture with chemical, growth-inhibiting non-lethal concentration) was 0.5, the “The level of expressed mRNA in the presence of chemical substance/absence: YPL150W” value (gene YPL150W) was 1.1 and the “The level of expressed mRNA in the presence of chemical substance/absence: YPL151C” value (gene YPL151C) was 0.9. For the same compound, the “The level of expressed mRNA in the presence of chemical substance/absence: YPL152W” value (gene YPL152W) was 1.4, the “The level of expressed mRNA in the presence of chemical substance/absence: YPL168W” value (gene YPL168W) was 0.7 and the “The level of expressed mRNA in the presence of chemical substance/absence: YPL180W” value (gene YPL180W) was 1.0. For the same compound, the “The level of expressed mRNA in the presence of chemical substance/absence: YPL188W” value (gene YPL188W) was 1.0, the “The level of expressed mRNA in the presence of chemical substance/absence: YPL221W” value (gene YPL221W) was 1.0 and the “The level of expressed mRNA in the presence of chemical substance/absence: YPL225W” value (gene YPL225W) was 0.9. For the same compound, the “The level of expressed mRNA in the presence of chemical substance/absence: YPL249C” value (gene YPL249C) was 0.9, the “The level of expressed mRNA in the presence of chemical substance/absence: YPL260W” value (gene YPL260W) was 1.0 and the “level … of chemical substance/in its absence” value (gene YPL265W) was 1.8. For the same compound, the “level … of chemical substance/in its absence” value (gene YPR006C) was 2.4, the “level … of chemical substance/in its absence” value (gene YPR026W) was 1.6 and the “The level of expressed mRNA in the presence of chemical substance/absence: YPR049C” value (gene YPR049C) was 0.9. The “The level of expressed mRNA in the presence of chemical substance/absence: YPR061C” value (gene YPR061C) was 1.6, the “The level of expressed mRNA in the presence of chemical substance/absence: YPR093C” value (gene YPR093C) was 1.2 and the “The level of expressed mRNA in the presence of chemical substance/absence: YPR146C” value (gene YPR146C) was 1.4. For the same compound, the “The level of expressed mRNA in the presence of chemical substance/absence: YPR148C” value (gene YPR148C) was 0.9, the “The level of expressed mRNA in the presence of chemical substance/absence: YPR150W” value (gene YPR150W) was 0.9 and the “The level of expressed mRNA in the presence of chemical substance/absence: YPR158W” value (gene YPR158W) was 1.5. The “The level of expressed mRNA in the presence of chemical substance/absence: YPR169W” value (gene YPR169W) was 1.0, the “The level of expressed mRNA in the presence of chemical substance/absence: YPR172W” value (gene YPR172W) was 1.9 and the “The level of expressed mRNA in the presence of chemical substance/absence: YPR174C” value (gene YPR174C) was 0.7. The “The level of expressed mRNA in the presence of chemical substance/The level of expressed mRNA in the absence of chemical substance” value (yeast gene YAR010C) was 0.9, the “The level of expressed mRNA in the presence of chemical substance/The level of expressed mRNA in the absence of chemical substance” value (yeast gene YBL005W-A) was 0.8 and the “The level of expressed mRNA in the presence of chemical substance/ (ratio to absence), gene YBL038W” value (yeast gene YBL038W, mitochondria-located protein genes, 2 h culture with chemical) was 0.7. The “The level of expressed mRNA in the presence of chemical substance/The level of expressed mRNA in the absence of chemical substance” value (yeast gene YBL041W) was 1.6, the “The level of expressed mRNA in the presence of chemical substance/The level of expressed mRNA in the absence of chemical substance” value (yeast gene YBL043W) was 1.5 and the “The level of expressed mRNA in the presence of chemical substance/The level of expressed mRNA in the absence of chemical substance” value (yeast gene YBL078C) was 4.6. For the same compound, the “The level of expressed mRNA in the presence of chemical substance/ (ratio to absence of chemical substance)” value (yeast gene YBL093C) was 1.3, the “The level of expressed mRNA in the presence of chemical substance/ (in its absence), gene YBR036C” value (yeast gene YBR036C, ratio of DNA chip fluorescence intensity to that without chemical substance) was 1.5 and the “The level of expressed mRNA in the presence of chemical substance/ (ratio to absence of chemical substance)” value (yeast gene YBR044C) was 1.1. For the same compound, the “The level of expressed mRNA in the presence of chemical substance/ (ratio to absence), gene YBR122C” value (yeast gene YBR122C, mitochondria-located protein genes, 2 h culture with chemical) was 1.2, the “The level of expressed mRNA in the presence of chemical substance/The level of expressed mRNA in the absence of chemical substance” value (yeast gene YBR214W) was 3.2 and the “The level of expressed mRNA in the presence of chemical substance/ (ratio to absence), gene YBR251W” value (yeast gene YBR251W, mitochondria-located protein genes, 2 h culture with chemical) was 1.5. The “The level of expressed mRNA in the presence of chemical substance/ (in its absence), gene YBR298C” value (yeast gene YBR298C, ratio of DNA chip fluorescence intensity to that without chemical substance) was 1.5, the “The level of expressed mRNA in the presence of chemical substance/The level of expressed mRNA in the absence of chemical substance” value (yeast gene YCL020W) was 1.3 and the “The level of expressed mRNA in the presence of chemical substance/The level of expressed mRNA in the absence of chemical substance” value (yeast gene YCL027W) was 0.9. The “The level of expressed mRNA in the presence of chemical substance/The level of expressed mRNA in the absence of chemical substance” value (yeast gene YCR004C) was 1.9, the “The level of expressed mRNA in the presence of chemical substance/ (ratio to absence), gene YCR046C” value (yeast gene YCR046C, mitochondria-located protein genes, 2 h culture with chemical) was 1.5 and the “The level of expressed mRNA in the presence of chemical substance/The level of expressed mRNA in the absence of chemical substance” value (yeast gene YCR071C) was 1.1. For the same compound, the “The level of expressed mRNA in the presence of chemical substance/ (ratio to absence), gene YCR083W” value (yeast gene YCR083W, mitochondria-located protein genes, 2 h culture with chemical) was 1.8, the “The level of expressed mRNA in the presence of chemical substance/ (ratio to absence of chemical substance)” value (yeast gene YCR083W) was 1.8 and the “The level of expressed mRNA in the presence of chemical substance/The level of expressed mRNA in the absence of chemical substance” value (yeast gene YCR088W) was 1.0. For the same compound, the “The level of expressed mRNA in the presence of chemical substance/The level of expressed mRNA in the absence of chemical substance” value (yeast gene YDL008W) was 0.9, the “The level of expressed mRNA in the presence of chemical substance/ in its absence, gene YDL067C” value (yeast gene YDL067C, energy system protein genes, 2 h culture with the chemical, ratio to control without chemical) was 1.4 and the “The level of expressed mRNA in the presence of chemical substance/ (ratio to absence), gene YDL067C” value (yeast gene YDL067C, mitochondria-located protein genes, 2 h culture with chemical) was 1.4.
